The values below come from ChEMBL document CHEMBL5212743, “Selectivity Literature for EUbOPEN Chemogenomics Library wave 3” (2023).

The structures appear in SMILES notation.

Assay [1] has as its target Protein arginine N-methyltransferase 1 (Homo sapiens, UniProt Q99873). In words: Selectivity interaction (Methyltransferase panel (Scintillation proximity assay (SPA))) EUB0000212b PRMT1. For orientation: Scintillation proximity formats need no separation of bound from free tracer.
In assay [2] the target is Protein arginine N-methyltransferase 3 (Homo sapiens, UniProt O60678). In words: Selectivity interaction (Methyltransferase panel (Scintillation proximity assay (SPA))) EUB0000212b PRMT3.
Protein arginine N-methyltransferase 3, sequence (O60678 whole entry): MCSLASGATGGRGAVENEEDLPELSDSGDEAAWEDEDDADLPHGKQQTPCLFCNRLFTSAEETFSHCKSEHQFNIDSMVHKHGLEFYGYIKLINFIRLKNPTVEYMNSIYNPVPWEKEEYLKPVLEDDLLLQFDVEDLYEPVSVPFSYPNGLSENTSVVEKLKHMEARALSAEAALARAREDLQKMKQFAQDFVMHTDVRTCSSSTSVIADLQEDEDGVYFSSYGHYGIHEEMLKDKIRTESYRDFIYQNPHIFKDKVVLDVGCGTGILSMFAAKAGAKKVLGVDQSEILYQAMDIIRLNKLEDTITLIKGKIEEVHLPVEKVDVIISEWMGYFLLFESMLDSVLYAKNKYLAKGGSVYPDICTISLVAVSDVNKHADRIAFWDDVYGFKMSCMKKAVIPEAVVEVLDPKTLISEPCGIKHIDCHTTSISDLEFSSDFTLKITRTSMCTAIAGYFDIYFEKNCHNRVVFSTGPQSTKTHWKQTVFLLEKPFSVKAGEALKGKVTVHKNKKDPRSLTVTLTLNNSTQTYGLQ
Assay [3] addresses Histone-lysine N-methyltransferase SUV39H2 (Homo sapiens, UniProt Q9H5I1). The assay is described as follows: Selectivity interaction (Methyltransferase panel (Scintillation proximity assay (SPA))) EUB0000212b SUV39H2.
Assay [4] has as its target Protein arginine N-methyltransferase 6 (Homo sapiens, UniProt Q96LA8). The assay is described as follows: Selectivity interaction (Methyltransferase panel (Scintillation proximity assay (SPA))) EUB0000212b PRMT6.
The target of assay [5] is Histone-lysine N-methyltransferase EZH2 (Homo sapiens, UniProt Q15910). The assay is described as follows: Selectivity interaction (Methyltransferase panel (Scintillation proximity assay (SPA))) EUB0000212b EZH2.
Histone-lysine N-methyltransferase EZH2, sequence (Q15910 whole entry): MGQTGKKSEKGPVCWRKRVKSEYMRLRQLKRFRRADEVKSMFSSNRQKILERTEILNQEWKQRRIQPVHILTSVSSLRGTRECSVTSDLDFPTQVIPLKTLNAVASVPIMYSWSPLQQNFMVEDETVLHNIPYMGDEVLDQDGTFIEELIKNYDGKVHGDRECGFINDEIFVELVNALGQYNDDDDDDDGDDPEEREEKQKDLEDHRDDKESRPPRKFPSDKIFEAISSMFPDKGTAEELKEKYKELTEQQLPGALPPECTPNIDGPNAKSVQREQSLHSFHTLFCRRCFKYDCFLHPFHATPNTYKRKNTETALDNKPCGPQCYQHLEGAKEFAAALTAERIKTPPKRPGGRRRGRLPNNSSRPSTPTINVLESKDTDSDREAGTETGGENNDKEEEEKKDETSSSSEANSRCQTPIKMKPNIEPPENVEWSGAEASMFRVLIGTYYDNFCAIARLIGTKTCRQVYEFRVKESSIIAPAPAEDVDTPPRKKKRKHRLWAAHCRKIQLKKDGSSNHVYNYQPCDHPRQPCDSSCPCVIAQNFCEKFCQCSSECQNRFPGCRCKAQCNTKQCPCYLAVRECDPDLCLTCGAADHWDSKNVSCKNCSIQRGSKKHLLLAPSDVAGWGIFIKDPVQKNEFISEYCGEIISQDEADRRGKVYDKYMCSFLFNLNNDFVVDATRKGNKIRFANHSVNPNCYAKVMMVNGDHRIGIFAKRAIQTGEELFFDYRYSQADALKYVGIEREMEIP
Assay [6] concerns the target Histone-lysine N-methyltransferase KMT5B (Homo sapiens, UniProt Q4FZB7). In words: Selectivity interaction (Methyltransferase panel (Scintillation proximity assay (SPA))) EUB0000212b SUV420H1.
Assay [7] deals with DNA (cytosine-5)-methyltransferase 1 (Homo sapiens, UniProt P26358). The assay is described as follows: Selectivity interaction (Methyltransferase panel (Scintillation proximity assay (SPA))) EUB0000212b DNMT1.
The target in assay [8] is Histone-lysine N-methyltransferase NSD2 (Homo sapiens, UniProt O96028). The assay is described as follows: Selectivity interaction (Methyltransferase panel (Scintillation proximity assay (SPA))) EUB0000212b NSD2.
The target in assay [9] is Histone-lysine N-methyltransferase SMYD3 (Homo sapiens, UniProt Q9H7B4). In words: Selectivity interaction (Methyltransferase panel (Scintillation proximity assay (SPA))) EUB0000212b SMYD3.
Histone-lysine N-methyltransferase SMYD3, sequence (Q9H7B4 whole entry): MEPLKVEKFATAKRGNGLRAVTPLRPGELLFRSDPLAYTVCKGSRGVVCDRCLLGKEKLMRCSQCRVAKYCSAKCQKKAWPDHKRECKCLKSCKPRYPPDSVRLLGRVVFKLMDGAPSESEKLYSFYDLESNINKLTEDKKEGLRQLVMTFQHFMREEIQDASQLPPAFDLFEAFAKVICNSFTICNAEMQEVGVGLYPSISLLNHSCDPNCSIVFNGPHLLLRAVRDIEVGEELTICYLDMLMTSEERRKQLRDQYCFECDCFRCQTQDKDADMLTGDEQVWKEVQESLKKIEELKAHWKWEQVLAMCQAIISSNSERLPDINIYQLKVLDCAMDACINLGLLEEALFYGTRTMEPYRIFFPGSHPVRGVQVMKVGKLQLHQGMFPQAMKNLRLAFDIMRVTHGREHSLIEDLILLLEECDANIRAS
For assay [10], the target named is T1, Histone-lysine N-methyltransferase SETD7 (Homo sapiens, UniProt Q8WTS6).
T1 sequence (Q8WTS6 whole entry): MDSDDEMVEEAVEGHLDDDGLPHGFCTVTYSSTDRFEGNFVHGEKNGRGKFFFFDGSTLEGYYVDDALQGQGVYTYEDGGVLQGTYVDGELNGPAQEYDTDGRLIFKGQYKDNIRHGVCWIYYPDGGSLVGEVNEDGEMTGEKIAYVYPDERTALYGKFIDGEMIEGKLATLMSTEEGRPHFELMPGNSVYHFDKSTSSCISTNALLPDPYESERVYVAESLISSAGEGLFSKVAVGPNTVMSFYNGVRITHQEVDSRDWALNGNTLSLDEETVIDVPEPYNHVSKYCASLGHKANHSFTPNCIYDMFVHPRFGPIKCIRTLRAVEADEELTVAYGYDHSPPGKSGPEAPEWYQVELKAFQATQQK
In words: Selectivity interaction (Methyltransferase panel (Scintillation proximity assay (SPA))) EUB0000212b SETD7.

In assay [11] the target is T2, Histone-lysine N-methyltransferase EZH1 (Homo sapiens, UniProt Q92800).
T2 sequence (Q92800 whole entry): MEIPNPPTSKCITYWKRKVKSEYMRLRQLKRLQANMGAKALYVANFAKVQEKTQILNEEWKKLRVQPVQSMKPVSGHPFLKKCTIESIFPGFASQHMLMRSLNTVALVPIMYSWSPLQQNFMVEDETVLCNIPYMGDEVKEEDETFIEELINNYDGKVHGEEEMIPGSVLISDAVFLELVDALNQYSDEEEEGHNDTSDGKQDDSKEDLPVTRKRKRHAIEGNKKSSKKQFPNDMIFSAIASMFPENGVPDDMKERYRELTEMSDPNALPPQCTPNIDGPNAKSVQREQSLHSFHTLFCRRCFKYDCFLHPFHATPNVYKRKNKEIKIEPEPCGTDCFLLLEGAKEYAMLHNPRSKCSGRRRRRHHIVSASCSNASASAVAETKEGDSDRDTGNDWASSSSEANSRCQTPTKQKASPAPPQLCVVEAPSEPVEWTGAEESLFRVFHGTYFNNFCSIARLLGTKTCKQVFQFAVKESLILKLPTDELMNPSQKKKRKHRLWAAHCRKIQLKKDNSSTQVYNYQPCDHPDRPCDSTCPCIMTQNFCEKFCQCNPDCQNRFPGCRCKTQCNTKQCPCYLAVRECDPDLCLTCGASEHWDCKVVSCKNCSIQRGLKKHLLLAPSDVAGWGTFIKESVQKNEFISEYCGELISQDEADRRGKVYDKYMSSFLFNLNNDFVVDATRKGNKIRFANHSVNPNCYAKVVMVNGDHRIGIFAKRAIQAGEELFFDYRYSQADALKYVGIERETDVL
In words: Selectivity interaction (Methyltransferase panel (Scintillation proximity assay (SPA))) EUB0000212b EZH1.

For assay [12], the target named is Histone-lysine N-methyltransferase KMT5C (Homo sapiens, UniProt Q86Y97). The assay is described as follows: Selectivity interaction (Methyltransferase panel (Scintillation proximity assay (SPA))) EUB0000212b SUV420H2.
Histone-lysine N-methyltransferase KMT5C, sequence (Q86Y97 whole entry): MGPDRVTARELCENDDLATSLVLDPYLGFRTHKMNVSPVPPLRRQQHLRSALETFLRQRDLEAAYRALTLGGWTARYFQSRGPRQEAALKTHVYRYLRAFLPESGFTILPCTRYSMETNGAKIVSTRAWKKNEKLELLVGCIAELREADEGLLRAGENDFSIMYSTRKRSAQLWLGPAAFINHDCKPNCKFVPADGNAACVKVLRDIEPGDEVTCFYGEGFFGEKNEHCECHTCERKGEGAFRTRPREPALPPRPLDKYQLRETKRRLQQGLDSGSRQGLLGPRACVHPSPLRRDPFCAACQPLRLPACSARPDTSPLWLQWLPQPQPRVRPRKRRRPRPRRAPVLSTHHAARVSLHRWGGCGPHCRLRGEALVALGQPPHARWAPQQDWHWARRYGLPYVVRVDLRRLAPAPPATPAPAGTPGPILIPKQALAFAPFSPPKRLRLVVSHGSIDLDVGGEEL
The target of assay [13] is Histone-lysine N-methyltransferase NSD3 (Homo sapiens, UniProt Q9BZ95). The assay is described as follows: Selectivity interaction (Methyltransferase panel (Scintillation proximity assay (SPA))) EUB0000212b NSD3.
Histone-lysine N-methyltransferase NSD3, sequence (Q9BZ95 whole entry): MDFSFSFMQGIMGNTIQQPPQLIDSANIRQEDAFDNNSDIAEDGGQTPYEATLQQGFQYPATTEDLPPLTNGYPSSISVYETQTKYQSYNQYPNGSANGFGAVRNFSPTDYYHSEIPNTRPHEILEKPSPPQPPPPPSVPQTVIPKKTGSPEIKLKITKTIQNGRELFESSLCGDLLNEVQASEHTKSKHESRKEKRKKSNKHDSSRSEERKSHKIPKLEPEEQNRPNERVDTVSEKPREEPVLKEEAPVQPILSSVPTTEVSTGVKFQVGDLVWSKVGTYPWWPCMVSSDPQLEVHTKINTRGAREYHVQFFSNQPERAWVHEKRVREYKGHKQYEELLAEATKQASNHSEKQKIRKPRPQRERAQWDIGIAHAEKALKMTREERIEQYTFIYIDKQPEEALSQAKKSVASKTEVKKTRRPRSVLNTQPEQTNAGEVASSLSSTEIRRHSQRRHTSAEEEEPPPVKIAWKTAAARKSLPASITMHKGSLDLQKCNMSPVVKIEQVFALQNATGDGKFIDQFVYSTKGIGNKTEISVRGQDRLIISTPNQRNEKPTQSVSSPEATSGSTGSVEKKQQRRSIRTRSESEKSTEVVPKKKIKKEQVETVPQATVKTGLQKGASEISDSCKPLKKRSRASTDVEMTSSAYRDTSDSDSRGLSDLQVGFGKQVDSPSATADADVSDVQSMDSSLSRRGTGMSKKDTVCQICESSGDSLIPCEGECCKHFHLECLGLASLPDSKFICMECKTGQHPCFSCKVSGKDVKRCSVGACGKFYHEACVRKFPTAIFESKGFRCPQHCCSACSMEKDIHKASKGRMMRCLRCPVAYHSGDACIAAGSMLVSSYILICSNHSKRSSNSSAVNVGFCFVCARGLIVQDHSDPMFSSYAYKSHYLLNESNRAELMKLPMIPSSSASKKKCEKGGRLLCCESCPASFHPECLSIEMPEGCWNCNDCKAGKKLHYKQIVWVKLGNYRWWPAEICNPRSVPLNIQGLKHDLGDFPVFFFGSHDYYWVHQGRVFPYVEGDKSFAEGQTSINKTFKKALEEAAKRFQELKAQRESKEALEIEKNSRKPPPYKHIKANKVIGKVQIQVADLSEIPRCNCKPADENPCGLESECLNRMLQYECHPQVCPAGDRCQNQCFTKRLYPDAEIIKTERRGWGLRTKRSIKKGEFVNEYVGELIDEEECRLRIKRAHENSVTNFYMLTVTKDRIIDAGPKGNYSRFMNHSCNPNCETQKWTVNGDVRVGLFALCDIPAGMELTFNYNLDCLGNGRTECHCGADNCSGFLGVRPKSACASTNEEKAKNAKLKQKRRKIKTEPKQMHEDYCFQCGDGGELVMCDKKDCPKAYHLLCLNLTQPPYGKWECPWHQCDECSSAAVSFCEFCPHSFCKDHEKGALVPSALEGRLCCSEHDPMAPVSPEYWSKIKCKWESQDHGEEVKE
Assay [14] concerns the target Histone-lysine N-methyltransferase, H3 lysine-79 specific (Homo sapiens, UniProt Q8TEK3). The assay is described as follows: Selectivity interaction (Methyltransferase panel (Scintillation proximity assay (SPA))) EUB0000212b DOT1L.
Assay [15] has as its target Protein arginine N-methyltransferase 8 (Homo sapiens, UniProt Q9NR22). The assay is described as follows: Selectivity interaction (Methyltransferase panel (Scintillation proximity assay (SPA))) EUB0000212b PRMT8.
Assay [16] addresses T3, N-lysine methyltransferase KMT5A (Homo sapiens, UniProt Q9NQR1).
T3 sequence (Q9NQR1 whole entry): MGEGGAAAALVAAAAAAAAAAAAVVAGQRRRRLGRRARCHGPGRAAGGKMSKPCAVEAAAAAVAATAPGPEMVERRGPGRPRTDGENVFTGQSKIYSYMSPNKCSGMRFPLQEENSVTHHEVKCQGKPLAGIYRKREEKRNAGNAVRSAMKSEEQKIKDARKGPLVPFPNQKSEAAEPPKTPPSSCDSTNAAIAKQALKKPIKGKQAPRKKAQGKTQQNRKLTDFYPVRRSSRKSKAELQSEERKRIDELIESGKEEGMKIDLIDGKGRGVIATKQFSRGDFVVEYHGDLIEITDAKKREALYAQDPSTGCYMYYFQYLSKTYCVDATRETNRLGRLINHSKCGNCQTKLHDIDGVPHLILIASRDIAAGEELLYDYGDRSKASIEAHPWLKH
The assay is described as follows: Selectivity interaction (Methyltransferase panel (Scintillation proximity assay (SPA))) EUB0000212b SETD8.

Assay [17] concerns the target Histone-lysine N-methyltransferase SETDB1 (Homo sapiens, UniProt Q15047). In words: Selectivity interaction (Methyltransferase panel (Scintillation proximity assay (SPA))) EUB0000212b SETDB1.
In assay [18] the target is Protein arginine N-methyltransferase 5 (Homo sapiens, UniProt O14744). In words: Selectivity interaction (Methyltransferase panel (Scintillation proximity assay (SPA))) EUB0000212b PRMT5.
Assay [19] concerns the target Histone-lysine N-methyltransferase 2A (Homo sapiens, UniProt Q03164). The assay is described as follows: Selectivity interaction (Methyltransferase panel (Scintillation proximity assay (SPA))) EUB0000212b MLL.
In assay [20] the target is T4, Gamma-aminobutyric acid receptor subunit alpha-1 (Homo sapiens) (UniProt P14867).
T4 sequence (whole entry): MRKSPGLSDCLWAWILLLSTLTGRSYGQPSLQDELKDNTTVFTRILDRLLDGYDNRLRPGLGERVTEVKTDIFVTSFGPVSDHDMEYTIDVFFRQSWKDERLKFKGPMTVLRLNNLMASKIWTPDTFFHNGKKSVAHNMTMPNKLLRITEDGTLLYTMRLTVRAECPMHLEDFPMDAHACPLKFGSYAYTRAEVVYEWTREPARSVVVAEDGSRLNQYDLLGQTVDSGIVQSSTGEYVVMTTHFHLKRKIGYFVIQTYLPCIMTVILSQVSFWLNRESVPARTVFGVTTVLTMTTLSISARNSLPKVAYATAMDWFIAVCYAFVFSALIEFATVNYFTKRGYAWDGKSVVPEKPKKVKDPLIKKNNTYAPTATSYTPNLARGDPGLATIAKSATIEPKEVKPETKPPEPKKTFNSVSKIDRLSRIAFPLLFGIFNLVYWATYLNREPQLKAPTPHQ
In words: (§1) Selectivity interaction (CEREP panel (GPCRS, ion channels, transporters)) EUB0000193b GABRA1. Particulars: Inactive against protein arginine methyltransferases,, at 10 µM.

Assay [21] has as its target T5, Gamma-aminobutyric acid receptor subunit alpha-1 (Homo sapiens, UniProt P14867).
T5 sequence (P14867 whole entry): T4 sequence (whole entry)
The assay is described as §1.

The next assay concerns the target Adenosine receptor A1 (Homo sapiens, UniProt P30542). The assay is described as follows: (§2) Selectivity interaction (CEREP panel (GPCRS, ion channels, transporters)) EUB0000193b ADORA1.
In assay [22] the target is Substance-K receptor (Homo sapiens) (UniProt P21452). In words: Selectivity interaction (CEREP panel (GPCRS, ion channels, transporters)) EUB0000193b TACR2. As to conditions: Inactive against protein arginine methyltransferases,, at 10 µM.
Assay [23] has as its target Kappa-type opioid receptor (Homo sapiens, UniProt P41145). The assay is described as follows: Selectivity interaction (CEREP panel (GPCRS, ion channels, transporters)) EUB0000193b OPRK1. As to conditions: Inactive against protein arginine methyltransferases,, at 10 µM.
The target of assay [24] is Adenosine receptor A2a (Homo sapiens) (UniProt P29274). In words: Selectivity interaction (CEREP panel (GPCRS, ion channels, transporters)) EUB0000193b ADORA2A. As to conditions: Inactive against protein arginine methyltransferases,, at 10 µM.
Assay [25] has as its target Histone-lysine N-methyltransferase NSD2 (Homo sapiens) (UniProt O96028). In words: Selectivity interaction (Epigenetic methyltransferases panel) EUB0000193b NSD2. Particulars: Inactive against protein arginine methyltransferases,, at 10 µM.
For assay [26], the target named is Delta-type opioid receptor (Homo sapiens) (UniProt P41143). The assay is described as follows: Selectivity interaction (CEREP panel (GPCRS, ion channels, transporters)) EUB0000193b OPRD1. As to conditions: Inactive against protein arginine methyltransferases,, at 10 µM.
For assay [27], the target named is T6, Adenosine receptor A3 (Homo sapiens) (UniProt P0DMS8).
T6 sequence (whole entry): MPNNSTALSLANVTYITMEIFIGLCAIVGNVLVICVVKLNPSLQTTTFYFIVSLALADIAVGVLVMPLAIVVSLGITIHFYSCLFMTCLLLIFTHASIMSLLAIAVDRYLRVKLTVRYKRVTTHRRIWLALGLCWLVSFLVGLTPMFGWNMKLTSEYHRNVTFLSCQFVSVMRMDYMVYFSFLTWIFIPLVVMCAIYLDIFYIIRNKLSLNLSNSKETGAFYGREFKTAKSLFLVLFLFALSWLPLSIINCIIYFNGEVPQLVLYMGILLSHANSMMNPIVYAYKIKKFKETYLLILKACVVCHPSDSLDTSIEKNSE
In words: Selectivity interaction (CEREP panel (GPCRS, ion channels, transporters)) EUB0000193b ADORA3. Particulars: Inactive against protein arginine methyltransferases,, at 10 µM.

Assay [28] addresses T7, Adenosine receptor A1 (Homo sapiens) (UniProt P30542).
T7 sequence (whole entry): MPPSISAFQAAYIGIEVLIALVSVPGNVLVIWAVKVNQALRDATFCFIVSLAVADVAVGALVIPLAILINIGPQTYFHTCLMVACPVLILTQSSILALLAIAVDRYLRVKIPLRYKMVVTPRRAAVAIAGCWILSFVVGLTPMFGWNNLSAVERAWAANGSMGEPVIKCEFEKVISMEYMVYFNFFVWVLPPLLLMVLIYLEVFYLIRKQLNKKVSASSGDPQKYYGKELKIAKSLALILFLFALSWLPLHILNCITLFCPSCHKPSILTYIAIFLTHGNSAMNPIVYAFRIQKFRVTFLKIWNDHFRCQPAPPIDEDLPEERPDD
Described as §2. As to conditions: Inactive against protein arginine methyltransferases,, at 10 µM.

Protein arginine N-methyltransferase 6, sequence (Q96LA8 whole entry): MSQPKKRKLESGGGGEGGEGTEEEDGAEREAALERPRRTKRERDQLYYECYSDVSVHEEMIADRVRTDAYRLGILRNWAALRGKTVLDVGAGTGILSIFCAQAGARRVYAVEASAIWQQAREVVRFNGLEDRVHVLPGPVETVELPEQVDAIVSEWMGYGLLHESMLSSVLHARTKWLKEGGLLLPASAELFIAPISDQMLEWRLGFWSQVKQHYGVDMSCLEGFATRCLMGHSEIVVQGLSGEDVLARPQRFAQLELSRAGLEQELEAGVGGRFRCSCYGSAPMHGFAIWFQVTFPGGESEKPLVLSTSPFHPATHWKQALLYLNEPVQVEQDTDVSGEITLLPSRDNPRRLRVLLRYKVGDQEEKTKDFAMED
Protein arginine N-methyltransferase 8, sequence (Q9NR22 whole entry): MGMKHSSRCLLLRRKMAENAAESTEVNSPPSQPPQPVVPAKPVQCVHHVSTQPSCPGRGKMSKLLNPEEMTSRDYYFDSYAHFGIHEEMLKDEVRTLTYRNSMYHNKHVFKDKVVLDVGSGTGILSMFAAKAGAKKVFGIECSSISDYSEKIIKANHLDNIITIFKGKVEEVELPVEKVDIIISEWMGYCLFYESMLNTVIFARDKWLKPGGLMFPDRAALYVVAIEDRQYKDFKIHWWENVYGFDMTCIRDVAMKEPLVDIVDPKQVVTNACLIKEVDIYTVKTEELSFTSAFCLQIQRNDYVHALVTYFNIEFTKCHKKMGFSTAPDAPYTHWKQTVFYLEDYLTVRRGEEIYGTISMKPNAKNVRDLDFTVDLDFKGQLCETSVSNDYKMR
Protein arginine N-methyltransferase 1, sequence (Q99873 whole entry): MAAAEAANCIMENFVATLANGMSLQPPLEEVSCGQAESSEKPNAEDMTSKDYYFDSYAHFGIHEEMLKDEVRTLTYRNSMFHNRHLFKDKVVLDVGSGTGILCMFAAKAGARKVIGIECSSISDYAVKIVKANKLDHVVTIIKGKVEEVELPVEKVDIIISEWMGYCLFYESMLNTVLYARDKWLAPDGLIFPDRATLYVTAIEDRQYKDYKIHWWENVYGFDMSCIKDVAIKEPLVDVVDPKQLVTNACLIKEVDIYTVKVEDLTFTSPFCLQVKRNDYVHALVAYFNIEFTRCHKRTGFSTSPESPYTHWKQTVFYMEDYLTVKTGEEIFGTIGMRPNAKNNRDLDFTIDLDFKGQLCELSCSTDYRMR

As to `COc1cc2c(cc1OCCCN1CCCC1)N=C(N)C21CCC1`, the EC50 in [1], in assay [2], in assay [3], in assay [4], in assay [5] and in assay [6] was above 50 µM in each case. Further, the EC50 in assay [7], in [8], in assay [9], in assay [10], in assay [11] and in assay [12] was above 50 µM each time. The EC50 in [13], in assay [14], in [15], in [16], in assay [17] and in [18] was above 50 µM each time. Besides, the EC50 – broadly, the concentration at which the effect is half-maximal – in [19] is above 50 µM.

Consider `Clc1cc2c(NC3CCCC3)nnc(-c3ccncc3)c2cc1Cl`, for which the % of inhibition in assay [20] came to 90%; in [22], 61%; in [23] it was 62%; in assay [24] it was 98%; in [26] it was 51%; in assay [27] it was 74%. This compound displayed a % of inhibition in [28] of 98%. Besides, the Ki (as a rule, a dissociation constant, usually derived from enzyme kinetics or from competition with a known ligand) came to 1.8 µM in [21] and 0.012 µM on Adenosine receptor A1. The compound further returned a % of activity remaining in assay [25] of 90%.
